In brackets after ≈: the same amount, converted by molar mass. Like-named read-outs stand apart in the source and are kept apart here.
Experiments:
C. parvum = test: microbe, parasite or virus in culture; type: cell-based, Cryptosporidium parvum; conditions: for EC90: HCT-8, read-out: C. parvum EC90
Mouse pharmacokinetics = conditions: for AUC / Vd / half-life / Cmax / Tmax / bioavailability: female, BALB/C, whole blood; for AUC / Vd / half-life / Cmax / Tmax / bioavailability / Clb: mouse; for CLB: mouse IV 3 mg/kg, clearance in blood; for Clb: percent of liver blood flow; for mean free (unbound) drug concentration relative to EC90: uninfected mice, 10 mg/kg oral single dose
Experimental: Uninfected mice were administered a single oral (10 mg/kg) dose of either DDD489 or DDD508 using the same formulation and dose concentration as for the efficacy study. Blood samples were collected at various time points after drug administration (15, 30, 60, 120, 180, 240, and 480 minutes) and analyzed to produce a concentration-time plot of unbound drug concentration (Fig. 3). […]
Mouse pharmacokinetics (Dundee)
As previously described.(27)
Test compound was dosed as a bolus solution intravenously (IV) at 3mg/kg (dose volume: 5 mL/kg; dose vehicle: 10% DMSO; 40% PEG 400; 50% Milli-Q water) or dosed orally (PO) by gavage as a suspension at 10mg/kg (dose volume: 10 mL/kg; dose vehicle: 1% CMC to female BALB/C mice (n = 3/dose route). Blood samples were taken from each mouse at 5, 15, 30 min, 1, 2, 4, 6, 8 h mixed with nine volumes of Milli-Q water and stored frozen until UPLC/MS/MS analysis. Pharmacokinetic parameters were derived from the blood concentration-time curve using PK solutions software v2.0 (Summit Research Services, USA).

Rat pharmacokinetics = type: in vivo; conditions: for half-life / Vd / AUC / Cmax / Tmax / bioavailability: male, Hans Wistar, whole blood; for half-life / Vd: 3 mg/kg, rat, IV; for half-life: read-out: T½ (converted); for Vd: read-out: Vdss; for bioavailability: read-out: F (oral bioavailability); for CLB: rat IV, clearance in blood
Experimental: Rat pharmacokinetics (Dundee)
As for mice except using male Hans Wistar rats (IV dose volume 1 mL/kg; PO dose volume: […]
Pharmacokinetic parameters were
derived from the blood concentration-time curve using WinNonLin Professional Software v
6.3 (Pharsight Corporation). […]

[1] = NOD SCID Gamma mice at MED 30 mg/kg, first and last days of treatment
Excerpt: Figure S6. Blood concentration time profiles for late lead compounds in infected mice.
Mean free blood concentration time profiles following oral administration of late lead compounds to NOD SCID Gamma (A a n d B ) and IFN-Gamma KO (C and D) mice twice daily for 7 days as described in Fig. 1C and Fig. 4A) respectively. Data are mean ± SD (3 mice per group). Blood samples were collected on the first day (squares) and last day (circles) of compound dosing (Day 7 and 13 PI for NOD SCID Gamma, Day 6 and 13 for IFN-Gamma KO). Total drug concentrations were corrected for fraction unbound (fu) in PPB assay […]
mg/kg) was administered to NOD SCID Gamma mice. (B) DDD508 (10 mg/kg) was administered to NOD SCID Gamma mice. Blood concentrations were scaled to 30 mg/kg for comparison, assuming dose linearity. (C) DDD489 (50 mg/kg) was administered to IFN-Gamma KO mice. (D) DDD508 (50 mg/kg) was administered to IFN-Gamma KO mice.
(1 picture or pasted object on this page, not shown here)

wild type parasites (WT) = test: Transgenic C. parvum NanoLuciferase drug sensitivity assay, WT; type: cell-based; conditions: Cryptosporidium parvum, HCT-8, 48 h, read-out: EC50, WT
FaSSIF solubility = type: physicochemical; conditions: Fasted State Simulated Intestinal Fluid
P-gp (MDR1) = test: in vitro; conditions: dog, MDCK-MDR1
[2] = Liver microsomal intrinsic clearance, bovine; type: in vitro ADME; conditions: bovine liver microsomes
[3] = Hepatocyte intrinsic clearance, mouse; type: in vitro ADME; conditions: mouse hepatocytes
[4] = Hepatocyte intrinsic clearance, dog; type: in vitro ADME; conditions: dog hepatocytes
[5] = Plasma protein binding, mouse; type: in vitro ADME; conditions: mouse PPB assay, read-out: fraction unbound (fu)
[6] = Plasma protein binding, rat; type: in vitro ADME; conditions: read-out: PPB (r) (converted)
[7] = Plasma protein binding, bovine; type: in vitro ADME; conditions: calf plasma, PPB assay, read-out: fraction unbound (fu)
CYP450 2C9 = CYP450 2C9 (Homo sapiens, UniProt P11712); test: CYP450 inhibition 2C9; type: in vitro ADME
Experimental: (§1) CYP450 inhibition (Dundee)
(§2) As previously described.(31)
(§3) DDD489 and DDD508 were evaluated for their ability to induce reverse mutations both in the presence and absence of S9 mix at the histidine locus in the genome of four strains of Salmonella typhimurium (TA98, TA100, TA1535, and TA97a) and at the tryptophan locus in the genome of Escherichia coli WP2 uvrA in a mini-Ames study conducted at WuXi App Tec […]
(§4) hERG inhibition (WuXi App Tec)
(§5) DDD489 and DDD508 were evaluated for their effects on cloned hERG potassium channels stably expressed in Chinese Hamster Ovary (CHO) cells using manual patch-clamp technique in a hERG inhibition assay conducted at WuXi App Tec (Suzhou).
(§6) Mitochondrial toxicity (Cyprotex)
(§7) DDD489 and DDD508 were evaluated for their effects on mitochondrial function in a functional mitochondrial toxicity assay using Seahorse XFe96 flux analyser conducted at […]
(§8) 44 screen safety panel (Eurofins)
(§9) DDD489 was evaluated for off-target effects in a SafetyScreen44 panel at Eurofins Cerep.
(§10) All regulated procedures, at the University of Dundee, on living animals were carried out under the authority of a project license issued by the Home Office under the Animals (Scientific Procedures) Act 1986, as amended in 2012 (and in compliance with EU Directive EU/2010/63). […]

CYP450 2D6 = CYP450 2D6 (Homo sapiens, UniProt P10635); test: CYP450 inhibition 2D6; type: in vitro ADME
Experimental: as §1, §2, §3, §4, §5, §6, §7, §8, §9, §10

CYP450 3A4 = CYP450 3A4 (Homo sapiens, UniProt P08684); test: CYP450 inhibition 3A4; type: in vitro ADME
Experimental: as §1, §2, §3, §4, §5, §6, §7, §8, §9, §10

CpKRS = CpKRS (Cryptosporidium parvum, UniProt Q5CR27); test: CpKRS in vitro enzyme assay
Experimental: CpKRS in vitro enzyme assay (Dundee)
Potency of compounds was determined in 10-point dose-response inhibition curves.
Echo 550 acoustic dispenser (Labcyte). KRS reactions were started by adding enzyme into wells containing substrate and compounds using a Thermo Scientiﬁ c Matrix Wellmate. KRS assays were run in 50 µL reactions (Final concentration: 100 mM HEPES*K pH 7.4, 20 mM
Pyrophosphatase) at room temperature for 7 h. Reactions were stopped by the addition of Biomol green (50 µL: Enzo Life Sciences) with the amount of free phosphate detected by
Samples were all run in duplicate and data was processed and analyzed using ActivityBase

[8] = Cryptosporidium parvum, HCT-8, 48 h, read-out: C. parvum EC50, co-cultured with HCT-8 cells for 48 hrs
[9] = read-out: C. parvum EC50, co-cultured with HCT-8 cells for 48 hrs
[10] = rat IV (DDD489 2.8, DDD508 3.47 mg/kg)

CYP450 2D6, sequence (P10635 whole entry): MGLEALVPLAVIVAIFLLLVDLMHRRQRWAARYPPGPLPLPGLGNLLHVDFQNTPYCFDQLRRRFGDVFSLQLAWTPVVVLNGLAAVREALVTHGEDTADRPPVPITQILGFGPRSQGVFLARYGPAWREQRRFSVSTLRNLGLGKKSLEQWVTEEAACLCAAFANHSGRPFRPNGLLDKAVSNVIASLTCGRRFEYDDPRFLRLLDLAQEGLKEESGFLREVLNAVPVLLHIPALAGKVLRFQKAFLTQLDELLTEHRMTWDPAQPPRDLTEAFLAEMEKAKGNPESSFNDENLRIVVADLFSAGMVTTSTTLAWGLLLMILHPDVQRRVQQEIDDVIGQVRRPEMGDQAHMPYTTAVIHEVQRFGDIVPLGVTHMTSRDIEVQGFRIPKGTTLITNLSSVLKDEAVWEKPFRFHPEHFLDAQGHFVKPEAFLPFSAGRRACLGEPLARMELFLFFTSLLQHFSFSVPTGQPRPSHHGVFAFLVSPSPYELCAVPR
CYP450 2C9, sequence (P11712 whole entry): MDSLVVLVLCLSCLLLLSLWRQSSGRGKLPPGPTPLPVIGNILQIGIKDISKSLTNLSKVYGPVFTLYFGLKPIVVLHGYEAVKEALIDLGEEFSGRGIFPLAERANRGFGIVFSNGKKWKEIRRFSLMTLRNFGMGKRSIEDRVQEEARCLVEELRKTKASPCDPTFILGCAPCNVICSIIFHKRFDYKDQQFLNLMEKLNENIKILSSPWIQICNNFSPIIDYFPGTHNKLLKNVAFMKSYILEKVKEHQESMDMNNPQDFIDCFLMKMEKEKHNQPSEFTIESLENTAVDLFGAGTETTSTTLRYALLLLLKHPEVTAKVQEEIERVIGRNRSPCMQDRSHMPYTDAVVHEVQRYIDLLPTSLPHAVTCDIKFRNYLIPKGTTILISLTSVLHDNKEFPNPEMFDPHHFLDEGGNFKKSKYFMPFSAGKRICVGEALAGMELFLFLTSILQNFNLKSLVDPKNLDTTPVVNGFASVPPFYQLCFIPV
CpKRS, sequence (Q5CR27 entry or part of it): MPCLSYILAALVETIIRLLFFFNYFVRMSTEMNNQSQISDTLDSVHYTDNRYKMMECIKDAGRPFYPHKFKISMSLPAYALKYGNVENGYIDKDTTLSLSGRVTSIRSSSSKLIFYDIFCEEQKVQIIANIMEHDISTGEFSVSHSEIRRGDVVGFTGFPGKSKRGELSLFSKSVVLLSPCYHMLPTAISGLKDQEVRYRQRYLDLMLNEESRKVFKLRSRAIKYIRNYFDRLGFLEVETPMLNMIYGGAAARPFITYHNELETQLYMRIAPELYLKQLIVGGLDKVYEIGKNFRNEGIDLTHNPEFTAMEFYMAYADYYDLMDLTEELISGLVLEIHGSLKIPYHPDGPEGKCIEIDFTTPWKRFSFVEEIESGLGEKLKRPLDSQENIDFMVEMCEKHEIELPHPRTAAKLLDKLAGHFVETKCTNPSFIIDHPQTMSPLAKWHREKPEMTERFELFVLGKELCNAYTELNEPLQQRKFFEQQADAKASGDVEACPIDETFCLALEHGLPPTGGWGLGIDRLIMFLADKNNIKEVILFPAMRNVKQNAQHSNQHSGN
CYP450 3A4, sequence (P08684 whole entry): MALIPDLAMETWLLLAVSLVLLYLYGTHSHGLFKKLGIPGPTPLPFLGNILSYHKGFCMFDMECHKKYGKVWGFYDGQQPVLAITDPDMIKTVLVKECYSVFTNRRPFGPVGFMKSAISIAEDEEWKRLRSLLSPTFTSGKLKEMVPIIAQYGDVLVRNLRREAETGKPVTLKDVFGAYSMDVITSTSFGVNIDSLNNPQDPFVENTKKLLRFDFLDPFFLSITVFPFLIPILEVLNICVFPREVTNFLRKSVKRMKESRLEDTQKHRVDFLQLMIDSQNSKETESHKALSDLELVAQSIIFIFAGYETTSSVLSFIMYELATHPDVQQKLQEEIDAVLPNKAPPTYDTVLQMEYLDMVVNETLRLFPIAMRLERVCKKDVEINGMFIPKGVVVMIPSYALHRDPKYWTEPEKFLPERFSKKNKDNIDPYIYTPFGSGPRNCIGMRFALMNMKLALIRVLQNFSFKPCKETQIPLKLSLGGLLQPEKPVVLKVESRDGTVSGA

Nc1nc2c(c(C(F)(F)F)n1)C(=O)N(CC1CCCC(C(F)(F)F)C1)C2 (stereo not shown) [DDD489]
EC50 (C. parvum; [8]): 43 nM
EC90 (C. parvum; Cryptosporidium parvum): 100 nM
EC50 (C. parvum; [9]): 40 nM
AUC (Mouse pharmacokinetics; iv, 3 mg/kg): 2280 ng·h/mL
Vd (Mouse pharmacokinetics; iv, 3 mg/kg): 2.8 L/kg
half-life (Mouse pharmacokinetics; iv, 3 mg/kg): 1.5 h
AUC (Mouse pharmacokinetics; po, 10 mg/kg): 517 ng·h/mL
Cmax (Mouse pharmacokinetics; po, 10 mg/kg): 200 ng/mL
Tmax (Mouse pharmacokinetics; po, 10 mg/kg): 1 h
bioavailability (Mouse pharmacokinetics; po, 10 mg/kg): 7%
CLB (Mouse pharmacokinetics): 22 mL/min/kg
Clb (Mouse pharmacokinetics): 17 % LBF
mean free (unbound) drug concentration relative to EC90 (Mouse pharmacokinetics): remained below the EC90
half-life (Rat pharmacokinetics): 1.2 h
Vd (Rat pharmacokinetics): 3.2 L/kg
AUC (Rat pharmacokinetics; [10]): 1200 ng·h/mL
AUC (Rat pharmacokinetics; rat PO 10 mg/kg): 137 ng·h/mL
Cmax (Rat pharmacokinetics; rat PO 10 mg/kg): 30 ng/mL
Tmax (Rat pharmacokinetics; rat PO 10 mg/kg): 2 h
bioavailability (Rat pharmacokinetics; rat PO 10 mg/kg): 3.2%
CLB (Rat pharmacokinetics): 39 mL/min/kg
free blood concentration relative to EC90 [1]: only above the EC90 for around two hours
EC50 (wild type parasites (WT)): 85 nM
solubility (FaSSIF solubility): 48 µM (≈ 18.4 µg/mL)
efflux ratio (P-gp (MDR1)): 1.3
Mics CLi (b) [2]: 25 mL/min/g
Heps CLi (m) [3]: 10 mL/min/g
Heps CLi (d) [4]: 1.8 mL/min/g
fraction unbound [5]: 0.16
fraction unbound [6]: 0.42
fraction unbound [7]: 0.26
IC50 (CYP450 2C9): 32000 nM
IC50 (CYP450 2D6): 8000 nM
IC50 (CYP450 3A4): > 100000 nM
IC50 (CpKRS): 850 nM

O=C(NCC1(O)CCCCC1)c1cc(=O)c2cc(O)ccc2o1 [DDD508]
EC50 (C. parvum; [8]): 132 nM
EC90 (C. parvum; Cryptosporidium parvum): 380 nM
EC50 (C. parvum; [9]): 130 nM
AUC (Mouse pharmacokinetics; iv, 3 mg/kg): 1480 ng·h/mL
Vd (Mouse pharmacokinetics; iv, 3 mg/kg): 1.8 L/kg
half-life (Mouse pharmacokinetics; iv, 3 mg/kg): 0.6 h
AUC (Mouse pharmacokinetics; po, 10 mg/kg): 267 ng·h/mL
Cmax (Mouse pharmacokinetics; po, 10 mg/kg): 200 ng/mL
Tmax (Mouse pharmacokinetics; po, 10 mg/kg): 0.25 h
bioavailability (Mouse pharmacokinetics; po, 10 mg/kg): 6%
CLB (Mouse pharmacokinetics): 34 mL/min/kg
Clb (Mouse pharmacokinetics): 27 % LBF
mean free (unbound) drug concentration relative to EC90 (Mouse pharmacokinetics): remained below the EC90
half-life (Rat pharmacokinetics): 0.6 h
Vd (Rat pharmacokinetics): 2.1 L/kg
AUC (Rat pharmacokinetics; [10]): 900 ng·h/mL
AUC (Rat pharmacokinetics; rat PO 10 mg/kg): 367 ng·h/mL
Cmax (Rat pharmacokinetics; rat PO 10 mg/kg): 100 ng/mL
Tmax (Rat pharmacokinetics; rat PO 10 mg/kg): 1 h
bioavailability (Rat pharmacokinetics; rat PO 10 mg/kg): 14%
CLB (Rat pharmacokinetics): 64 mL/min/kg
free blood concentration relative to EC90 [1]: only above the EC90 for around two hours
EC50 (wild type parasites (WT)): 270 nM
solubility (FaSSIF solubility): 325 µM (≈ 103 µg/mL)
efflux ratio (P-gp (MDR1)): 9.5
Mics CLi (b) [2]: < 0.5 mL/min/g
Heps CLi (m) [3]: 3.7 mL/min/g
Heps CLi (d) [4]: 1.2 mL/min/g
fraction unbound [5]: 0.6
fraction unbound [6]: 0.47
fraction unbound [7]: 0.53
IC50 (CYP450 2C9): > 100000 nM
IC50 (CYP450 2D6): > 100000 nM
IC50 (CYP450 3A4): > 100000 nM
IC50 (CpKRS): 1700 nM
